# Source: patent US8426394B2, “Progesterone antagonists such as CDB-4124 in the treatment of endometriosis, uterine fibroids, dysmenorrhea, breast cancer, etc” (Repros Therapeutics Inc., priority 2008, dated 2013)
# Legend:
# [1] = system: progesterone-induced endometrial proliferation in the rabbit uterus; assay: anti-McGinty and anti-Clauberg assays (biological activity in the rabbit uterus); type: in vivo; settings: in comparison to RU 486 and CDB-2914
# Source text: Also given in Table 1 are the relative biological activities of the same compounds in the rabbit uterus by the anti-McGinty and anti-Clauberg assays. Compound CDB-2914 (listed at the end of the Table) was used as the control or reference compound (rabbit Biological Activity=1.00) for these experiments because results of experiments using CDB-2914 have been published before (Hild-Petito et al., 1996; Passaro et al., 1997; Reel et al., 1998; Lamer et al., 2000). For the anti-McGinty test, immature female rabbits received a subcutaneous injection of 5 μg estradiol in 10% ethanol/sesame oil daily for 6 consecutive days. On day 7, animals underwent sterile abdominal surgery to ligate a 3-4 cm segment of both uterine horns. The test compound in appropriate solvent was injected intraluminally into the ligated segment of one uterine horn and vehicle alone into the other. […] Five micron sections stained with hematoxylin and cosin were evaluated microscopically for the degree of endometrial glandular proliferation. The percent inhibition of endometrial proliferation for each rabbit was calculated and the mean of the group of five animals recorded. […] Five micron sections stained with hematoxylin and eosin were evaluated microscopically for the degree of endometrial glandular proliferation. […]
# [2] = target: T1, glucocorticoid receptor (rbGR) (Oryctolagus cuniculus, UniProt P59667); assay: Glucocorticoid receptor binding / anti-glucocorticoid receptor activity; design: species or system rabbit
# T1 construct: cytosol containing PR or GR were prepared in TEGMD buffer; from tissue; host or cells: thymus of estradiol-primed immature rabbits (cytosol)
# T1 sequence (P59667 1-772): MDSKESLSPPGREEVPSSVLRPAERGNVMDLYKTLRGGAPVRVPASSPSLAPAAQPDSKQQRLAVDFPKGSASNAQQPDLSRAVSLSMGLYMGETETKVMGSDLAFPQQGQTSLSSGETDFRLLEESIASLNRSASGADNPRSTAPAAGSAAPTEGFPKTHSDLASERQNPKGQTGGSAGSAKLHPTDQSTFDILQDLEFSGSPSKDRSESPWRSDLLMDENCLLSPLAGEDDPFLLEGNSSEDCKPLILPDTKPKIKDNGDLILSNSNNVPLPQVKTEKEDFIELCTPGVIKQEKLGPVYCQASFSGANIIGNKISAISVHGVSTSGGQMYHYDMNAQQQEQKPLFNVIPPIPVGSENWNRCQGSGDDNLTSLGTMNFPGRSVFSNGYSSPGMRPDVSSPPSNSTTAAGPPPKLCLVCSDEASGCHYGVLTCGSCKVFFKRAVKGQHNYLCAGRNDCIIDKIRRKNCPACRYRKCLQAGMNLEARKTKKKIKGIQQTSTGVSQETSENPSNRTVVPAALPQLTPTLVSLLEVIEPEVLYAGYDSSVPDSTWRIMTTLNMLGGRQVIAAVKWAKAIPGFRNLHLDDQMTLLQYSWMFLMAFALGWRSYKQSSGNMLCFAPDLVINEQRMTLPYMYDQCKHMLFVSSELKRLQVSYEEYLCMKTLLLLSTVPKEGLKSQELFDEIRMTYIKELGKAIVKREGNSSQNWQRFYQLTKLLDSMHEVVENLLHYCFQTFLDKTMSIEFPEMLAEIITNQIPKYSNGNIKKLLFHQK
# Procedure: Certain antiprogestins were tested in receptor-binding assays for their ability to bind rabbit progesterone receptor (rbPR) and glucocorticoid receptor (rbGR). […] For PR binding, the cytosol was incubated with 6 nM 1,2-[^3H]progesterone (50.0 Ci/mmole) and competitors were added at concentrations from 2 to 100 nM. For binding to GR, the cytosol was incubated with 6 nM 6,7-[^3H]-dexamethasone (40 Ci/mmol) and test compounds were added at concentrations from 20 to 100 nM. After overnight incubation at 4 C, bound and unbound [^3H] steroids were separated by addition of dextran-coated charcoal and centrifugation at 2100×g for 15 min at 4 C. Supernatants containing the [3H]-steroid receptor complexes were decanted into vials containing 4 ml Optifluor (Packard Instrument Co.), vortexed, equilibrated in a liquid scintillation counter for 30 minutes and then counted for 2 minutes. […] The standards for the PR and GR assays were unlabeled progesterone and dexamethasone, respectively.
# glucocorticoid receptor = target: T2, glucocorticoid receptor (Homo sapiens, UniProt P04150); settings: Attardi et al., 2002; cited from earlier work
# T2 sequence (P04150 1-777): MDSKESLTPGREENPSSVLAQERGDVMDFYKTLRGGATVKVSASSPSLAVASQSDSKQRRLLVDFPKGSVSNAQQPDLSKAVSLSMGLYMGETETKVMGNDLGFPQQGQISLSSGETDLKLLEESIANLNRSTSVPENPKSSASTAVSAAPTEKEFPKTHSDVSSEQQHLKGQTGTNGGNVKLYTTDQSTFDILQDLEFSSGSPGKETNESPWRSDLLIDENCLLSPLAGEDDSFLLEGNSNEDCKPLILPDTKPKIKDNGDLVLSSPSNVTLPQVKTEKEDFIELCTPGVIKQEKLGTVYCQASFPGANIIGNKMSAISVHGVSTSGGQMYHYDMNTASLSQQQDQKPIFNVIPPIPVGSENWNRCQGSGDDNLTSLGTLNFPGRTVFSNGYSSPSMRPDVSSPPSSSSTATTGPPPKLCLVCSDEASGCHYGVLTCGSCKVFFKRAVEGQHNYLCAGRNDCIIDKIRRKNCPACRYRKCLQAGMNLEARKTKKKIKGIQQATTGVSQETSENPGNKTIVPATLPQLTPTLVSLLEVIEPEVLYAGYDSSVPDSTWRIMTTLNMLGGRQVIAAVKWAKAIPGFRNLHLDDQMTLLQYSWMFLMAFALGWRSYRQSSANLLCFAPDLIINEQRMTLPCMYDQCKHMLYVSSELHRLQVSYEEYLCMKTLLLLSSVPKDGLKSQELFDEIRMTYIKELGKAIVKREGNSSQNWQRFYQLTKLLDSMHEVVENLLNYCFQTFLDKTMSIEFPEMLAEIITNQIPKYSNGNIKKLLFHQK
# [3] = system: pre-menopausal adult women diagnosed with endometriosis; assay: Six month study of Proellex (CDB-4124) in the treatment of endometriosis; type: in vivo, human; settings: Lucrin
# Procedure: Pain reduction also occurred more rapidly than with the active control, Lucrin®. The response of pain to treatment in this study was analyzed in two ways. Patients in the study maintained daily pain diaries to record the severity and frequency of pain. In addition, at each office visit, patients filled out endometriosis symptom surveys that included a questionnaire that evaluated intensity of pain on a bad day on a scale of 0-10 with 10 being the greatest intensity. […] There appeared to be a dose dependent effect on pain reduction. […] This decrease in duration of pain was statistically better (p=0.0012) than the 117.8 (74%; standard deviation 51.4 days) pain free days achieved with Lucrin®. […] Patients on CDB-4124 12.5 mg and 25 mg doses had 115.9 (66%; standard deviation 69.2 days) and 133.6 (75%; standard deviation 27.4 days) pain free days, respectively. […] The 25 mg and 12.5 mg doses of CDB-4124 were not statistically different from Lucrin®. […] The intensity of pain was assessed by the question: “On a […], with 0 being no pain and 10 being extreme pain, how intense was your pain on a bad day?” The mean scores for intensity of pain at baseline were 6.3 for the CDB-4124 groups and 6.1 for the Lucrin® group. […] At month three all four active treatment groups had statistically significant reduction in pain compared with baseline, with the following scores: 3.7 (p=0.03) for 12.5 mg CDB-4124, 3.2 (p=0.03) for 25 mg CDB-4124, 1.6 (p=0.015) for 50 mg CDB-4124 and 1.5 (p=0.016) for Lucrin®. These dose related reductions continued until month six when the values for pain intensity were 2.0 (p=0.008), 2.8 (p=0.023), 0.6 (p=0.004) and 0.7 (p=0.016), respectively. Two months after stopping treatment pain returned and was of similar intensity in all four treatment groups.
# [4] = Serum corticosterone in rats; settings: progesterone, CDB-4124 and RU-486 groups compared
compound,measurement,setting,value
"CC(=O)OCC(=O)[C@@]1(OC(C)=O)CCC2C3CCC4=CC(=O)CCC4=C3C(c3ccc(N(C)C)cc3)C[C@@]21C (stereo partly drawn) [CDB-4059, 21-acetoxy-17α-acetoxy-11β-(4 N,N-dimethylaminophenyl)-19-norpregna-4,9-diene-3,20-dione]",antiprogestin activity in the rabbit uterus,[1],strong
same,anti-glucocorticoid receptor activity / glucocorticoid receptor binding,[2],minimal
"CNc1ccc([C@H]2C[C@@]3(C)[C@@H](CC[C@]3(OC(C)=O)C(=O)COC)[C@@H]3CCC4=CC(=O)CCC4=C32)cc1 [CDB-4453, 21-methoxy-17α-acetoxy-11β-(4-N-methylaminophenyl)-19-norpregna-4,9-diene-3,20-dione]",anti-glucocorticoid activity relative to parent CDB-4124,glucocorticoid receptor,even lower
"CCNC(=O)[C@@H]1CCCN1C(=O)[C@H](CCCNC(=N)N)NC(=O)[C@H](CC(C)C)NC(=O)[C@@H](CC(C)C)NC(=O)[C@H](Cc1ccc(O)cc1)NC(=O)[C@H](CO)NC(=O)[C@H](Cc1c[nH]c2ccccc12)NC(=O)[C@H](Cc1c[nH]cn1)NC(=O)[C@@H]1CCC(=O)N1 [Lupron®, leuprolide acetate, reference compound]",intensity of pain on a bad day (score),"[3]; month six, scale 0-10, p=0.016",0.7
same,intensity of pain on a bad day (score),"[3]; month three, scale 0-10, baseline 6.1, p=0.016",1.5
"CC#C[C@]1(O)CC[C@H]2[C@@H]3CCC4=CC(=O)CCC4=C3[C@@H](c3ccc(N(C)C)cc3)C[C@@]21C [RU 486, 11β-[p-(Dimethylamino)phenyl]-17β-hydroxy-17-(1-propynyl)estra-4,9-dien-3-one, reference compound]",differences in serum corticosterone between treatment groups,[4],No differences
